Assay results reported in US9464062B2, “Disubstituted oxazolidin-2-ones 5-hydroxytryptamine receptor 2B activity modulators” (TEMPLE UNIVERSITY—OF THE COMMONWEALTH SYSTEM OF HIGHER …, priority 2012, dated 2016).
pIC50: −log10 of the molar value.

Target: 5HT2B receptors (Homo sapiens (Human), UniProt P41595)
Experiment: Radiolabel Binding Studies for Serotonin 5HT2B receptors, method 1 ([3H]LSD competition)
Conditions: for inhibition at 10 µM: single concentration 10 uM, inhibition of [3H]LSD binding, read-out: 5-HT2B % inhib @10 uM; for pIC50: [3H]LSD radioligand
Description: A solution of the compound of the disclosure to be tested is prepared as a 1-mg/ml stock in Assay Buffer (50 mM Tris-HCl, 10 mM MgCl2, 1 mM EDTA, pH 7.4) or DMSO according to its solubility. A 1-mg/ml stock of the reference compound 5-hydroxytryptamine (5-HT) is also prepared as a positive control. Eleven dilutions (5× assay concentration) of the compound of the disclosure and 5-HT are prepared in the Assay Buffer by serial dilution to yield final corresponding assay concentrations ranging from […].
A stock concentration of 5 nM [^3H]LSD (lysergic acid diethyl amide) is prepared in Assay Buffer. Aliquots (50 μl) of radioligand are dispensed into the wells of a 96-well plate containing 100 μl of Assay Buffer. Duplicate 50-μl aliquots of the compound of the disclosure test and 5-HT positive control reference compound serial dilutions are added.
Membrane fractions of cells expressing recombinant 5HT2B receptors (50 μL) are dispensed into each well. The membranes are prepared from stably transfected c ell lines expressing 5HT2B receptors cultured on 10-cm plates by harvesting PBS-rinsed monolayers, resuspending and lysing the monolayers in chilled, hypotonic 50 mM Tris-HCl, pH 7.4, centrifuging at 20,000×g, decanting the supernatant and storing at −80° C. The membrane preparations are resuspended in 3 ml of chilled Assay Buffer and homogenized by several passages through a 26 gauge needle before use in the assay.
The 250-μl reactions are incubated at room temperature for 1.5 hours, then harvested by rapid filtration onto 0.3% polyethyleneimine-treated, 96-well filter mats using a 96-well Filtermate harvester. Four rapid 500-μl washes are performed with chilled Assay Buffer to reduce non-specific binding. The filter mats are dried, then scintillant is added to the filters and the radioactivity retained on the filters is counted in a scintillation counter.
Raw data (dpm) representing total radioligand binding (i.e., specific+non-specific binding) are plotted as a function of the logarithm of the molar concentration of the competitor (i.e., test or reference compound). Non-linear regression of the normalized (i.e., percent radioligand binding compared to that observed in the absence of test or reference compound) raw data is performed in […] (GraphPad Software, Inc.) using the built-in three parameter logistic model describing ligand competition binding to radioligand-labeled sites: y=bottom+[(top−bottom)/(1+[…])] where “bottom” is the residual radioligand binding measured in the presence of 10 μM reference compound (i.e., non-specific binding) and “top” is the total radioligand binding observed in the absence of competitor. The log IC50 (i.e., the log of the ligand concentration that reduces radioligand binding by 50%) is thus estimated from the data and used to obtain the Ki by applying the Cheng-Prusoff approximation: Ki=IC50/(1+[ligand]/KD) where “[ligand]” is the assay radioligand concentration and “KD” is the affinity constant of the radioligand for the target receptor.
Compounds of the disclosure are also screened at a single concentration of 10 μM using the same method described for the Radiolabel Binding Studies for Serotonin 5HT2B receptors, method 1 to determine the percent inhibition of [^3H]LSD binding.

Sequence of 5HT2B receptors (P41595 whole entry): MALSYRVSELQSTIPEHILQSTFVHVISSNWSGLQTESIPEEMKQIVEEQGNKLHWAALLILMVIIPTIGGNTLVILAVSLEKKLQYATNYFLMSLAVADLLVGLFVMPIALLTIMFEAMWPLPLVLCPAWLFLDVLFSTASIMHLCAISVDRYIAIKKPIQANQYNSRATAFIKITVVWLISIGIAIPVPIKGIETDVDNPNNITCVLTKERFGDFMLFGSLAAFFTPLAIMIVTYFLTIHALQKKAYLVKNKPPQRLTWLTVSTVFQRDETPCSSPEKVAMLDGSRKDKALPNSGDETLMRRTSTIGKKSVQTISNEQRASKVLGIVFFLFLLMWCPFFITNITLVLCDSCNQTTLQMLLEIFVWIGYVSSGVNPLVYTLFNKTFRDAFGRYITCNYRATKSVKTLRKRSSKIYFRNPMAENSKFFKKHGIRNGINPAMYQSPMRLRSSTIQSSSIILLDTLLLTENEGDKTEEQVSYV

Structure (SMILES)	inhibition at 10 µM	pIC50
O=C1OC(CN2CCN(C(c3ccccc3)c3ccccc3)CC2)CN1C1CCCCC1 (stereo not shown) [Entry 2]	91.4%	–
CC(C)N1CC(CN2CCN(C(c3ccccc3)c3ccccc3)CC2)OC1=O (stereo not shown) [Entry 3]	84.9%	6.56
C=CCN1CC(CN2CCN(C(c3ccccc3)c3ccccc3)CC2)OC1=O (stereo not shown) [Entry 1]	91.1%	6.90
CC(C)(C)N1CC(CN2CCN(C(c3ccccc3)c3ccccc3)CC2)OC1=O (stereo not shown) [Entry 6]	59.3%	5.73

Second part, the compound after the results:

inhibition at 10 µM	pIC50	Structure (SMILES)
87.3%	6.72	O=C1OC(CN2CCN(C(c3ccccc3)c3ccccc3)CC2)CN1C1CCC1 (stereo not shown) [Entry 4]
94.1%	7.39	O=C1OC(CN2CCN(C(c3ccccc3)c3ccccc3)CC2)CN1C1CCCC1 (stereo not shown) [Entry 5]
87.6%	6.53	O=C1OC(CN2CCN(C(c3ccccc3)c3ccccc3)CC2)CN1C1CC1 (stereo not shown) [Entry 7]
